# Patent US11655254B2, “Substituted piperazines as BTK inhibitors” (HUTCHISON MEDIPHARMA LIMITED, priority 2020, dated 2023)
# Tests used:
# [1] = biological target: Phosphorylated BTK in Ramos cells (Homo sapiens (Human), UniProt Q06187); experiment: Determination of phosphorylated BTK in Ramos cells (BTK phospho-Y223 HTRF); assay type: cell-based; conditions: Ramos cells stimulated with immunoglobulin M 10 μg/mL and hydrogen peroxide 3.3 mM, 10 minutes
# Method: Ramos cells were starved in PRMI 1640 medium with 1% FBS for 2 hours. The starved Ramos cells were diluted with Hank's balanced salt solution to 5.0×10^6 cells/ml, seeded in a 96-well plate with 20 μL/well (1.0×10^5 cells/well), and cultured in a 5% CO2, 37° C. cell incubator. […]
# The 384 well plate incubated overnight in the constant temperature incubator was taken out to detect the luminescence signal using the Envision microwell plate reader at the […]. The reading value at 665 nm/615 nm of each well multiplied by 10^4 was used as the signal value of each well.
# The average signal value of the wells supplemented with the mixed solution of human immunoglobulin M (final concentration was 10 μg/mL) and hydrogen peroxide (final concentration was 3.3 mM) without the test compound was regarded as the high value, and the average signal value of the wells without immunoglobulin M stimulation and without the test compound was regarded as the low value. According to the signal value in each well, the inhibition ratio (%) of each concentration of compounds was calculated, and the 205 model in XL-Fit 5.3 software (ID Business Solutions Limited) was used to obtain an IC50 value.
# The inhibition ratio is calculated as follows: inhibition ratio (%)=100%−{(treating well for the test compound−negative control treating well)/(control treating well for anti-human immunoglobulin M−negative control treating well)}×100%, wherein, […]
# [2] = Drug concentration in plasma of mice of the B cell activation study; assay type: in vivo; conditions: C57BL/6, plasma; mouse, 20 mg/kg oral, 16 h after administration
# Method: The animals of each group were administered, then were placed in CO2 for anesthesia at designated time points, blood samples were taken from […] via retro-orbital bleeding, and heparin was used for anticoagulation; 90 μL of whole blood was taken from mice of each group, and added to a 96 well culture plate, and anti-mouse IgD antibody (BIO-RAD, Cat #MCA4693) was added to each well to a final concentration of 0.01 μg/μL (respectively for each drug-treated group and anti-IgD antibody-inducted vehicle group); in addition, 90 μL of whole blood of mice in the vehicle group was taken and added to the 96-well culture plate, and PBS (phosphate buffer, GIBCO, Cat # C20012500BT) was added to each well to a final concentration of 0.01 μg/μL (namely, the vehicle control group); Each group was mixed well and incubated in a 37° C./5% CO2 incubator for 4 hours. In addition, the blood of mice in the drug-treated group was centrifuged to separate plasma for blood concentration analysis.
# [3] = system: B cell activation in mice whole blood (BTK target); experiment: In vivo inhibitory effect on BTK target: anti-IgD antibody-induced B cell activation in mice whole blood after oral dosing; design: species or system mouse; conditions: 20 mg/kg oral gavage, single administration, 16 h
# Description: Objects: B cells in mice whole blood were induced and activated by the anti-IgD antibody, and the inhibitory effect of the compound of the present invention on B cell activation in vivo was studied, so as to determine the inhibitory effect of the compound of the present invention on the BTK target in vivo.
# Methods: C57BL/6 mice (female, 18-20 g, purchased from Shanghai Lingchang Biotechnology Co., Ltd.) were grouped according to Table 1.
# In addition, the blood of mice in the drug-treated group was centrifuged to separate plasma for blood concentration analysis.
# Calculation for Inhibition Ratio: Inhibition ratio=(percentage of B cell activation ratio in anti-IgD antibody-induced vehicle group-percentage of B cell activation ratio in drug-treated group)/(percentage of B cell activation ratio in anti-IgD antibody-induced vehicle group-percentage of B cell activation ratio in vehicle control group)×100%
# All data are represented by mean±standard error. For the comparison between each drug-treated group and the anti-IgD antibody-induced vehicle group, p value was calculated by Graphpad Prism using one-way ANOVA analysis of variance and Dunnett's test, and for the comparison between each drug-treated group, p value was calculated by using unpaired t test.
# [4] = Stability test in liver microsomes (rat); assay type: in vitro ADME; conditions: rat liver microsomes 0.5 mg/mL, compound 1 μM, 37° C.
# Method: The test compound stock solution was diluted with an organic solvent (usually a mixture of acetonitrile, methanol and water with various ratios, depending on the solubility of the compound, if necessary, 1 N hydrochloric acid or 1 N sodium hydroxide would be added to facilitate solubilization) to the 0.1 mM (the final concentration of the compound in the reaction system was 1 μM) and the concentration percentage of the organic solvents in the incubation system no more than 1% (wherein the percentage of DMSO was required to be no more than 0.1%). An appropriate amount of 100 mM NADP, 500 mM G-6-P and 100 Unit/mL G-6-PDH were mixed and diluted with ultrapure water (the final system contains 1 mM NADP, 5 mM G-6-P and 1 Unit/mL G-6-PDH), pre-incubated in a 37° C. water bath for 10 minutes and then placed on ice for use as a NADPH regeneration solution. 20 mg/mL liver microsomes solution and 200 mM phosphate buffer were mixed, and diluted with ultrapure water to give a liver microsomes solution containing 2.5 mg/mL liver microsomes (the final concentration of the reaction system is 0.5 mg/mL) and 50 mM phosphate buffer. […]
# The percentage of the remaining compound after 30 minutes of incubation comparing with that in the 0-minute sample was calculated using the peak area ratio of the compound to the internal standard as an indicator, to evaluate the metabolic stability of the compound.
# [5] = system: CIA (collagen induced arthritis) rats; experiment: Rat arthritis model induced by type II collagen (CIA); assay type: in vivo; conditions: compared with vehicle control group
# Method: An appropriate amount of bovine type II collagen (CII, Chondrex (Redmond, Wash., USA), Cat #20021) was weighed and dissolved in 0.1 mole of acetic acid (SPGC Sinopharm Chemical Reagent Co., Ltd (Shanghai, P.R. China), Cat #: 10000218.), which was formulated into a solution with a concentration of 6 mg/mL, stirred at 4° C. overnight, and added with an equal volume of Freund's incomplete adjuvant (Sigma-Aldrich.(St. Louis, Mo., USA), Cat #: SLBW0366.), fully emulsified to prepare an emulsion with a CII concentration of 3 mg/mL.
# Female Lewis rats were purchased from Beijing Vital River Laboratory Animal Technology Co., Ltd. (certificate number 20200928Aazz0619000579, initial body weight of 110-130 grams), and 6 rats were randomly selected as a normal group; and all of the remaining rats were immunized. In the first immunization on day 0, the rats except those in the normal group were anesthetized with isoflurane (Hebei Yipin Pharmaceutical Co., Ltd., Lot: C002170601.), and then disinfected with 75% alcohol, and 0.2 mL of emulsion was injected intradermally at the base of the tail thereof. A second challenge was carried out on day 7, and 0.2 mL of emulsion was intradermally injected using the same method. Once the animals developed symptoms on day 10, the incidence conditions thereof were closely monitored.
# After grouping, the normal group was not administered, and the rats in the other groups were administered with the control vehicle, 0.25 mg/kg and 4 mg/kg of the reference GDC-0853, and each dose of compound 1 orally once a day until the end of the experiment.
# The paw volume was measured on day 10 after immunization, and the left and right hind paw volumes (V) were measured every day after the paw volume increase was detected.
# The arthrosis paw volumes of the left and right hind limbs of each animal were measured, and the average paw volume (APV) was calculated according to the following formula: Average paw volume APV=(Vleft+Vright)/2
# The average arthrosis paw volume of each animal before administration was used as the baseline (or considered 100% inhibition of inflammation). […]
# The area under the curve (AUC) of the average paw volume swelling is the area under the curve of the arthrosis score swelling calculated by the trapezoid method, and the calculation formula is: AUCAPS=1/2×(APSd1+APSd2)×(d2−d1)+1/2×(APSd2+APSd3)×(d3−d2)+ . . . +1/2×(APSdn+APSd(n-1))×(dn−dn-1). […]
# ED50 is calculated by XLfit software according to the AUC inhibition ratio of the area under the curve of the average paw volume swelling. […]
# Sequence of Phosphorylated BTK in Ramos cells (Q06187 whole entry): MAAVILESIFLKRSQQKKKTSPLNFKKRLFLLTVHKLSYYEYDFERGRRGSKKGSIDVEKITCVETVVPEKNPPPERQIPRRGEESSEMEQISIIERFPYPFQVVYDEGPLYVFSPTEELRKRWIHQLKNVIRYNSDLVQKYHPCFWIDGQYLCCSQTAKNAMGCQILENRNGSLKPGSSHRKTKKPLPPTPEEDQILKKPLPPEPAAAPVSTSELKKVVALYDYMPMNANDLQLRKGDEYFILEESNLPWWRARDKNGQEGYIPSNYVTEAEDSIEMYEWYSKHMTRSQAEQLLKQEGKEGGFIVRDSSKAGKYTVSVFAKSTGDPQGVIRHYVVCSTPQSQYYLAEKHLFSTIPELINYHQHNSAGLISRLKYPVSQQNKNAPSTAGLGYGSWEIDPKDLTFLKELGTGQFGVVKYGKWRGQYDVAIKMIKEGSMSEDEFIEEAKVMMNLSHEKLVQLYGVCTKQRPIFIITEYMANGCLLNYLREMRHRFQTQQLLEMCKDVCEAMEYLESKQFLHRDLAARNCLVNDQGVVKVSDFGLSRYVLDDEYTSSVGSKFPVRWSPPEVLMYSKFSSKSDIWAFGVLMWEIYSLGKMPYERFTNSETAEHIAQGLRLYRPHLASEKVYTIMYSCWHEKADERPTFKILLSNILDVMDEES
"RLM, percentage of the remaining compound after 30 minutes of incubation [4]",Compound,IC50 [1],concentration at 16 h [2],Inhibition ratio (%) on B cell activation [3],Inhibition ratio (%) on B cell activation ([3]; listed as compound 2),effect on paw volume ([5]; 0.25 mg/kg oral QD),effect on paw volume ([5]; 4 mg/kg oral QD)
,C[C@@H]1CN(C2COC2)C[C@H](C)N1c1ccc(Nc2cc(-c3ccnc(-n4ccn5c6c(cc5c4=O)CC(C)(C)C6)c3CO)cn(C)c2=O)nc1 [Compound 2],6 nM,6.6 ± 2.51 ng/mL,43%,43%,,
,"C[C@H]1CN(C2COC2)C[C@H](C)N1c1ccc(Nc2cc(-c3ccnc(-n4ncn5c6c(cc5c4=O)CC(C)(C)C6)c3CO)cn(C)c2=O)nc1 [Compound 4, 2-(5-((5-((2S,6S)-2,6-dimethyl-4-(oxetan-3-yl)piperazin-1-yl)pyridin-2-yl)amino)-3′-(hydroxymethyl)-1-methyl-6-oxo-1,6-dihydro-[3,4′-bipyridin]-2′-yl)-7,7-dimethyl-7,8-dihydro-2H-cyclopenta[4,5]pyrrolo[1,2-d][1,2,4]triazin-1(6H)-one]",3 nM,,,,,
81.0%,"C[C@H]1CN(C2COC2)CCN1c1ccc(Nc2cc(-c3ccnc(N4CCn5c(cc6c5CC(C)(C)C6)C4=O)c3CO)cn(C)c2=O)nc1 [GDC-0853, fenebrutinib, reference compound]",,5.01 ± 2.26 ng/mL,,,no improvement effect,significantly reduced
